# Measured values: PubChem BioAssay (NCI)
#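 Five concentrations, 48 hours, 96-well plates. TGI: concentration producing complete growth inhibition.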
# Key:
# Test in all cases: NCI tumour cell line growth inhibition, 48 h
# [1] = test system: K-562 leukemia
# [2] = test system: ACHN renal
# [3] = test system: HS 578T breast
# [4] = test system: M14 melanoma
# [5] = test system: NCI-H460 lung
# [6] = test system: SK-OV-3 ovarian
# [7] = test system: TK-10 renal
# [8] = test system: A549 NSCLC
# [9] = test system: SK-MEL-5 melanoma
# [10] = test system: SK-MEL-2 melanoma
# [11] = test system: CAKI-1 renal
# [12] = test system: OVCAR-4 ovarian
# [13] = test system: A498 renal
# [14] = test system: UACC-62 melanoma
# [15] = test system: MDA-MB-435
# [16] = test system: SF-295 CNS
# [17] = test system: SNB-75 CNS
# [18] = test system: MALME-3M melanoma
# [19] = test system: SF-539 CNS
# [20] = test system: HCT-15 colon
# [21] = test system: SNB-19 CNS
# [22] = test system: SR leukemia
# [23] = test system: OVCAR-3 ovarian
# [24] = test system: NCI-H522 lung
# [25] = test system: UACC-257 melanoma
# [26] = test system: HCT-116 colon
# [27] = test system: CCRF-CEM leukemia
# [28] = test system: UO-31 renal
# [29] = test system: SF-268 CNS
# [30] = test system: OVCAR-5 ovarian
# [31] = test system: T-47D breast
# [32] = test system: KM12 colon
# [33] = test system: MDA-MB-231 breast
# [34] = test system: RXF 393 renal
# [35] = test system: PC-3 prostate
# [36] = test system: COLO 205 colon
# [37] = test system: HOP-92 NSCLC
# [38] = test system: HOP-62 NSCLC
# [39] = test system: SK-MEL-28 melanoma
# [40] = test system: EKVX NSCLC
# [41] = test system: MOLT-4 leukemia
# [42] = test system: MDA-N
# [43] = test system: HL-60(TB) leukemia
# [44] = test system: HCC-2998 colon
# [45] = test system: 786-0 renal
# [46] = test system: SW-620 colon
# [47] = test system: RPMI-8226 leukemia
# [48] = test system: DU-145 prostate
# [49] = test system: NCI-H23 lung
# [50] = test system: IGROV1 ovarian
# [51] = test system: MCF7 breast
# [52] = test system: LOX IMVI melanoma
# [53] = test system: BT-549 breast
# [54] = test system: U251 CNS
# [55] = test system: SN12C renal
# [56] = test system: NCI/ADR-RES ovarian
# [57] = test system: OVCAR-8 ovarian
# [58] = test system: HT29 colon
# [59] = test system: NCI-H226 lung
smiles,measurement,setting,value
CC1=C(C(=O)NC2CCCCC2)CC(C(=O)NC2CCCCC2)=C(C)N1,TGI,[1],> 100 µM
same,TGI,[2],> 100 µM
same,TGI,[3],> 100 µM
same,TGI,[4],> 100 µM
same,TGI,[5],> 100 µM
same,TGI,[6],> 100 µM
same,TGI,[7],> 100 µM
same,TGI,[8],> 100 µM
same,TGI,[9],> 100 µM
same,TGI,[10],> 100 µM
same,TGI,[11],> 100 µM
same,TGI,[12],> 100 µM
same,TGI,[13],> 100 µM
same,TGI,[14],> 100 µM
same,TGI,[15],> 100 µM
same,TGI,[16],> 100 µM
same,TGI,[17],64.9 µM
same,TGI,[18],> 100 µM
same,TGI,[19],> 100 µM
same,TGI,[20],> 100 µM
same,TGI,[21],> 100 µM
same,TGI,[22],> 100 µM
same,TGI,[23],> 100 µM
same,TGI,[24],> 100 µM
same,TGI,[25],> 100 µM
same,TGI,[26],> 100 µM
same,TGI,[27],> 100 µM
same,TGI,[28],> 100 µM
same,TGI,[29],> 100 µM
same,TGI,[30],> 100 µM
same,TGI,[31],> 100 µM
same,TGI,[32],> 100 µM
same,TGI,[33],> 100 µM
same,TGI,[34],> 100 µM
same,TGI,[35],> 100 µM
same,TGI,[36],> 100 µM
same,TGI,[37],> 100 µM
same,TGI,[38],> 100 µM
same,TGI,[39],> 100 µM
same,TGI,[40],> 100 µM
same,TGI,[41],> 100 µM
same,TGI,[42],> 100 µM
same,TGI,[43],> 100 µM
same,TGI,[44],> 100 µM
same,TGI,[45],> 100 µM
same,TGI,[46],> 100 µM
same,TGI,[47],> 100 µM
same,TGI,[48],> 100 µM
same,TGI,[49],> 100 µM
same,TGI,[50],> 100 µM
same,TGI,[51],> 100 µM
same,TGI,[52],> 100 µM
same,TGI,[53],> 100 µM
same,TGI,[54],> 100 µM
same,TGI,[55],> 100 µM
O=C1NC(=S)NC(=O)C1C(c1ccc(Cl)cc1)C1C(=O)NC(=S)NC1=O,TGI,[1],> 100 µM
same,TGI,[56],> 100 µM
same,TGI,[2],> 100 µM
same,TGI,[4],> 100 µM
same,TGI,[5],> 100 µM
same,TGI,[7],> 100 µM
same,TGI,[8],> 100 µM
same,TGI,[9],> 100 µM
same,TGI,[10],> 100 µM
same,TGI,[11],> 100 µM
same,TGI,[12],> 100 µM
same,TGI,[13],> 100 µM
same,TGI,[14],> 100 µM
same,TGI,[15],> 100 µM
same,TGI,[16],> 100 µM
same,TGI,[18],> 100 µM
same,TGI,[20],> 100 µM
same,TGI,[21],> 100 µM
same,TGI,[23],> 100 µM
same,TGI,[24],> 100 µM
same,TGI,[57],> 100 µM
same,TGI,[25],> 100 µM
same,TGI,[26],> 100 µM
same,TGI,[27],> 100 µM
same,TGI,[28],> 100 µM
same,TGI,[30],> 100 µM
same,TGI,[31],> 100 µM
same,TGI,[32],> 100 µM
same,TGI,[33],> 100 µM
same,TGI,[34],> 100 µM
same,TGI,[35],> 100 µM
same,TGI,[36],> 100 µM
same,TGI,[37],> 100 µM
same,TGI,[38],> 100 µM
same,TGI,[58],> 100 µM
same,TGI,[59],> 100 µM
same,TGI,[39],> 100 µM
same,TGI,[40],> 100 µM
same,TGI,[41],> 100 µM
same,TGI,[42],> 100 µM
same,TGI,[43],> 100 µM
same,TGI,[45],> 100 µM
same,TGI,[46],> 100 µM
same,TGI,[47],> 100 µM
same,TGI,[48],> 100 µM
same,TGI,[49],> 100 µM
same,TGI,[50],> 100 µM
same,TGI,[51],> 100 µM
same,TGI,[52],> 100 µM
same,TGI,[53],> 100 µM
same,TGI,[54],> 100 µM
same,TGI,[55],> 100 µM
O=C1N/N=C\c2ccc(cc2)OCc2cccc(n2)COc2ccc(cc2)/C=N\NC1=O,TGI,[1],> 25 µM
same,TGI,[56],> 25 µM
same,TGI,[2],> 25 µM
same,TGI,[3],> 25 µM
same,TGI,[4],> 25 µM
same,TGI,[5],> 25 µM
same,TGI,[6],> 25 µM
same,TGI,[7],> 25 µM
same,TGI,[8],> 25 µM
same,TGI,[10],> 25 µM
same,TGI,[12],> 25 µM
same,TGI,[13],> 25 µM
same,TGI,[14],> 25 µM
same,TGI,[15],> 25 µM
same,TGI,[16],> 25 µM
same,TGI,[17],> 25 µM
same,TGI,[18],> 25 µM
same,TGI,[19],> 25 µM
same,TGI,[20],> 25 µM
same,TGI,[21],> 25 µM
same,TGI,[22],> 25 µM
same,TGI,[23],> 25 µM
same,TGI,[24],> 25 µM
same,TGI,[57],> 25 µM
same,TGI,[25],> 25 µM
same,TGI,[26],> 25 µM
same,TGI,[27],> 25 µM
same,TGI,[28],> 25 µM
same,TGI,[29],> 25 µM
same,TGI,[30],> 25 µM
same,TGI,[32],> 25 µM
same,TGI,[33],> 25 µM
same,TGI,[34],> 25 µM
same,TGI,[35],> 25 µM
same,TGI,[36],> 25 µM
same,TGI,[37],> 25 µM
same,TGI,[38],> 25 µM
same,TGI,[58],> 25 µM
same,TGI,[59],> 25 µM
same,TGI,[39],> 25 µM
same,TGI,[40],> 25 µM
same,TGI,[41],> 25 µM
same,TGI,[42],> 25 µM
same,TGI,[43],> 25 µM
same,TGI,[45],> 25 µM
same,TGI,[46],> 25 µM
same,TGI,[47],> 25 µM
same,TGI,[48],> 25 µM
same,TGI,[49],> 25 µM
same,TGI,[50],> 25 µM
same,TGI,[51],> 25 µM
same,TGI,[53],> 25 µM
same,TGI,[54],> 25 µM
same,TGI,[55],> 25 µM
Cc1ccc2c(c1C)CC1(Cc3c(C)ccc(C)c3C1=O)C2=O (centres undefined),TGI,[1],> 100 µM
same,TGI,[56],> 100 µM
same,TGI,[2],> 100 µM
same,TGI,[3],> 100 µM
same,TGI,[4],> 100 µM
same,TGI,[5],> 100 µM
same,TGI,[6],> 100 µM
same,TGI,[7],> 100 µM
same,TGI,[8],> 100 µM
same,TGI,[9],> 100 µM
same,TGI,[11],> 100 µM
same,TGI,[12],> 100 µM
same,TGI,[13],> 100 µM
same,TGI,[14],> 100 µM
same,TGI,[15],> 100 µM
same,TGI,[16],> 100 µM
same,TGI,[17],> 100 µM
same,TGI,[18],> 100 µM
same,TGI,[19],> 100 µM
same,TGI,[20],> 100 µM
same,TGI,[21],> 100 µM
same,TGI,[24],> 100 µM
same,TGI,[57],> 100 µM
same,TGI,[25],> 100 µM
same,TGI,[26],> 100 µM
same,TGI,[27],> 100 µM
same,TGI,[28],> 100 µM
same,TGI,[29],> 100 µM
same,TGI,[30],> 100 µM
same,TGI,[31],> 100 µM
same,TGI,[32],> 100 µM
same,TGI,[33],> 100 µM
same,TGI,[34],> 100 µM
same,TGI,[36],> 100 µM
same,TGI,[37],> 100 µM
same,TGI,[58],> 100 µM
same,TGI,[59],> 100 µM
same,TGI,[39],> 100 µM
same,TGI,[40],> 100 µM
same,TGI,[41],> 100 µM
same,TGI,[42],> 100 µM
same,TGI,[43],> 100 µM
same,TGI,[44],> 100 µM
same,TGI,[45],> 100 µM
same,TGI,[46],> 100 µM
same,TGI,[47],> 100 µM
same,TGI,[48],> 100 µM
same,TGI,[49],> 100 µM
same,TGI,[50],> 100 µM
same,TGI,[51],> 100 µM
same,TGI,[53],> 100 µM
same,TGI,[54],> 100 µM
same,TGI,[55],> 100 µM
